The values that follow are results of earlier work, collected in patent EP2965746B1 (Santa Farma Ilaç Sanayi A.S., priority 2014, dated 2016).

The conditions of data set [1]: in water.
For data set [2] the following is noted: in vivo.
The conditions of data set [3]: in vivo. This is another data set of the same source.

Values after ≈ are worked out from the molar mass of the structure shown.

For the compound `CC(C)Cc1ccc(C(C)C(=O)O)cc1` (racemic) [Ibuprofen, (±)-(R,S)-2-(4-isobutylphenyl)-propionic acid], in data set [1], the solubility (in general, how much of the substance goes into solution per volume) is 0.078 µg/mL (≈ 0.378 µM). Besides, in data set [2], the “time to reach maximum plasma concentration (Tmax)” value is listed as 1.4 ± 1.1 h. Moreover, the absolute bioavailability entry in data set [3] is “about 100%”.
With `CC(C)Cc1ccc(C(C)C(=O)O)cc1.O.O.[Na]` (stereo not shown) [Ibuprofen sodium dihydrate, ibuprofen sodium dihydrate], the “time to reach maximum plasma concentration (Tmax)” value in data set [2] is recorded as 0.6 ± 0.3 h.
